Source: PubChem BioAssay (NCI)
Several values for one entry are separate records, joined by “and”; a condition that tells them apart may be missing. Identical values can stand only once.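 Test compounds were applied to cells in 96-well plates for 48 hours at 5 doses. GI50: concentration for 50% inhibition of growth. TGI: concentration producing complete growth inhibition.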 Where a SMILES comes first, the peptide text is derived from it. The star is where a group is joined. Cbz = O=C(OCc1ccccc1)*; Boc = CC(C)(C)OC(=O)*; OSu = O=C1CCC(=O)N1O*; Bn = c1ccc(C*)cc1

Legend:
Assay in all cases: growth of human tumour cells (NCI), 48 h
786-0 renal = system: 786-0 renal
HCT-15 colon = system: HCT-15 colon
IGROV1 ovarian = system: IGROV1 ovarian
K-562 leukemia = system: K-562 leukemia
NCI-H226 lung = system: NCI-H226 lung
NCI-H23 lung = system: NCI-H23 lung
RPMI-8226 leukemia = system: RPMI-8226 leukemia
SF-268 CNS = system: SF-268 CNS
SK-MEL-2 melanoma = system: SK-MEL-2 melanoma
SNB-75 CNS = system: SNB-75 CNS
UACC-62 melanoma = system: UACC-62 melanoma
HL-60(TB) leukemia = system: HL-60(TB) leukemia
MOLT-4 leukemia = system: MOLT-4 leukemia

Structure (SMILES)	TGI (786-0 renal)	TGI (HCT-15 colon) [µM]	TGI (IGROV1 ovarian)	TGI (K-562 leukemia)	TGI (NCI-H226 lung) [µM]	TGI (NCI-H23 lung)	TGI (RPMI-8226 leukemia) [µM]	TGI (SF-268 CNS)	TGI (SK-MEL-2 melanoma) [µM]	TGI (SNB-75 CNS) [µM]	TGI (UACC-62 melanoma) [µM]	TGI (HL-60(TB) leukemia)	TGI (MOLT-4 leukemia) [µM]	GI50 (HCT-15 colon)	GI50 (HL-60(TB) leukemia)	GI50 (NCI-H226 lung) [µM]	GI50 (NCI-H23 lung)	GI50 (MOLT-4 leukemia) [nM]	GI50 (RPMI-8226 leukemia) [nM]
COc1ccc2c(c1)CC[C@@H]1C2CC[C@]2(C)C(=C=CP(=O)(O)O)CCC12 (stereo partly specified)	> 100 µM	> 100	> 100 µM	> 100 µM	> 100	> 100 µM	> 100	> 100 µM	> 100	> 100	> 100								
COc1cccc(CCCNC(=O)Cc2ccccc2CO)c1	> 100 µM	> 100	> 100 µM	> 100 µM	> 100	> 100 µM			> 100	> 100	> 100	> 100 µM	> 100						
COC(=O)c1ccccc1C1CN=NC12Cc1c(C)ccc(C)c1C2=O (stereo unspecified)	> 100 µM	> 100	> 100 µM	> 100 µM	> 100	> 100 µM		> 100 µM	> 100	> 100	> 100	> 100 µM	> 100						
O=c1c2cc(I)ccc2nc(-c2cccs2)n1O	> 100 µM	> 100	> 100 µM	> 100 µM	> 100	> 100 µM	> 100	> 100 µM	> 100		> 100	> 100 µM	> 100						
CC(C)=CCCC1(C)C2COC(=O)C21 (stereo unspecified)	> 100 µM	> 100	> 100 µM	> 100 µM and 27.4 µM	> 100	> 100 µM and 60.1 µM	> 100	> 100 µM	> 100		> 100	> 100 µM and 40.9 µM		> 100 µM and 37 µM	43.3 µM and 18.8 µM	> 100	> 100 µM and 26.7 µM		
CC(C)(C)OC(=O)NC(Cc1ccc(OCc2ccccc2)cc1)C(=O)NC(CCCCNC(=O)OCc1ccccc1)C(=O)NC(CCCCNC(=O)OCc1ccccc1)C(=O)ON1C(=O)CCC1=O (stereo unspecified) (Boc-Tyr(Bn)-Lys(Cbz)-Lys(Cbz)-OSu; configuration not given here)	37.1 µM	> 100	> 100 µM			> 100 µM	> 100	> 100 µM	99.4	> 100	34.6		> 100						
CCCCCCCCCCCCC1N=C(N)NC2(CCCO2)C1C(=O)OC (stereo unspecified)	16.9 µM	42.9	6.72 µM	5.25 µM	36.9	18.2 µM	5.53	14.8 µM	20.9	7.99	14.8		5.3						
NC(N)=NCCCC(NC(=O)c1c2ccccc2nc2ccccc12)C(=O)O (stereo unspecified)	> 100 µM	> 100	> 100 µM	> 100 µM	> 100	> 100 µM	> 100	> 100 µM	> 100	> 100	> 100		> 100						
CCOC(=O)c1c(-c2ccccc2)c(C)cn1C	> 10 µM	> 10	> 10 µM	> 10 µM	> 10	> 10 µM		> 10 µM	> 10	> 10	> 10		> 10						
C#CCOC(=O)C(=[N+]=[N-])C(=O)CC(C)C	> 10 µM	> 10	> 10 µM	> 10 µM	> 10	> 10 µM	> 10	> 10 µM	> 10		> 10	> 10 µM	> 10						
Cc1nc(Cc2n[nH]c(C)n2)n[nH]1	> 100 µM	> 100	> 100 µM	> 100 µM		> 100 µM	> 100	> 100 µM	> 100	> 100	> 100		> 100						
CCC(=C/[C@H](C)C/C=C/C(C)=C/[C@@H](C)C(=O)[C@@H](C)[C@H](O)[C@@H](C)CC)/C=C/[C@H]1CC=CC(=O)O1	1.26 µM and 10.8 µM	1.78	3.96 µM and 10.4 µM			5.26 µM and 13.3 µM		2.79 µM and 12.2 µM	< 0.0012	< 0.0012	0.00667	0.0126 µM				< 0.0012		< 1.2	< 1.2
COC(=O)[C@@H]1COC(=O)N1	> 100 µM	> 100	> 100 µM	> 100 µM	> 100	> 100 µM		> 100 µM	> 100	> 100	> 100	> 100 µM	> 100						
Cc1cc(C)n2c(nc3ccccc32)c1C#N	> 100 µM	> 100	> 100 µM	> 100 µM	> 100	> 100 µM			> 100		> 100	> 100 µM	> 100						
S=c1[nH]nc(CCCCCCCCc2n[nH]c(=S)o2)o1	> 100 µM	> 100	> 100 µM	> 100 µM	> 100	> 100 µM		> 100 µM	> 100	> 100		> 100 µM	> 100						
O=C(O)C1(C(O)c2ccccc2)SCCCS1 (stereo unspecified)	> 10 µM	> 10	> 10 µM	> 10 µM	> 10	> 10 µM		> 10 µM	> 10	> 10	> 10	> 10 µM	> 10						
O=CC1=CCC2c3[nH]c4ccccc4c3CCN2C1 (stereo unspecified)	> 396 µM	156	> 396 µM	> 396 µM	385	320 µM	> 396	> 396 µM	267		> 396	> 396 µM	> 396						
CCOC(=O)C1C(c2ccc(OC)cc2)c2c([nH]n(-c3ccccc3)c2=O)CC1(C)O (stereo unspecified)	> 100 µM	> 100	> 100 µM			> 100 µM	> 100	> 100 µM	> 100	> 100	> 100	11.1 µM	6.35						
CC(=O)C(C(C)=O)[C@H]1OC(C)(C)O[C@H]1[C@H]1COC(C)(C)O1	> 100 µM	> 100	> 100 µM	> 100 µM		> 100 µM		> 100 µM	58.8	> 100	> 100		> 100						

Structure (SMILES)	TGI (786-0 renal)	TGI (HCT-15 colon) [µM]	TGI (IGROV1 ovarian)	TGI (K-562 leukemia)	TGI (NCI-H226 lung) [µM]	TGI (NCI-H23 lung)	TGI (RPMI-8226 leukemia) [µM]	TGI (SF-268 CNS)	TGI (SK-MEL-2 melanoma) [µM]	TGI (SNB-75 CNS) [µM]	TGI (UACC-62 melanoma) [µM]	TGI (HL-60(TB) leukemia)	TGI (MOLT-4 leukemia) [µM]	GI50 (HCT-15 colon)	GI50 (HL-60(TB) leukemia)	GI50 (NCI-H226 lung) [µM]	GI50 (NCI-H23 lung)	GI50 (MOLT-4 leukemia) [nM]	GI50 (RPMI-8226 leukemia) [nM]
COc1ccc(/C=N/Nc2nnc3c(n2)c2ccccc2c2nn(-c4ccccc4Cl)nc23)cc1	> 100 µM	> 100	> 100 µM	> 100 µM	> 100	> 100 µM	> 100	> 100 µM	> 100	> 100	> 100		> 100						
COc1cc2c(cc1OC)C(=O)/C(=C/c1ccc(N(C)C)cc1)CC2	> 10 µM	> 10	> 10 µM	> 10 µM	> 10	> 10 µM	> 10	> 10 µM	> 10		> 10	> 10 µM	> 10						
Cc1ccc2nc(C(=O)O)c(=O)[nH]c2c1	> 100 µM	> 100	> 100 µM	> 100 µM	> 100	> 100 µM	> 100	> 100 µM	> 100		> 100	> 100 µM	> 100						
COC1OC(C(=O)O)C2OC(C)(C)OC12 (stereo unspecified)	> 100 µM	> 100	> 100 µM	> 100 µM	> 100	> 100 µM	> 100	> 100 µM	> 100	> 100	> 100		> 100						
CSc1nc(C)c2c(n1)N(c1ccc(Cl)cc1)CC2	> 100 µM	> 100	> 100 µM	> 100 µM	> 100	> 100 µM	> 100	> 100 µM	> 100	38.8	> 100		> 100						
COC(=O)CC1CC2(C(=O)OC)c3[nH]c4ccccc4c3CCN2C1=O (stereo unspecified)	> 100 µM	> 100	> 100 µM	> 100 µM	> 100	> 100 µM		> 100 µM	> 100	> 100	> 100	> 100 µM	> 100						
CC(CC=O)Nc1nn2c(=O)c3ccccc3nc2s1 (stereo unspecified)	> 100 µM	> 100	> 100 µM	> 100 µM	> 100	> 100 µM	> 100	> 100 µM	> 100	> 100	> 100		> 100						
Cc1cc2c(cc1Cl)Sc1n[nH]c(=O)n1S2(=O)=O	> 100 µM	> 100	> 100 µM	> 100 µM	> 100	> 100 µM		> 100 µM		> 100	> 100	> 100 µM	> 100						
C=CCNC1=C2C[C@@H](C)C[C@@H](OC)[C@H](OC(=O)CCN(C)C)[C@H](C)/C=C(\C)[C@@H](OC(N)=O)[C@H](OC)/C=C\C=C(/C)C(=O)NC(=CC1=O)C2=O	21.2 µM	19.9	14.5 µM	> 43.7 µM		17.1 µM	> 41.9	29.4 µM	12.2	0.741	11.9	11.7 µM	> 40.6						
CN(C)C(=O)Oc1ccc(C(=S)Nc2ccccc2)cc1	> 100 µM	> 100	> 100 µM	> 100 µM		> 100 µM	> 100	> 100 µM	> 100		> 100	84.9 µM	64						
N#Cc1c(N)nc(Sc2ccccc2N)c(C#N)c1-c1ccccc1	63.3 µM	> 100	> 100 µM	> 100 µM	> 100	63.7 µM	> 100	75.3 µM	32.5		26.6		> 100						
C=CCN1C(=O)CC(=O)N(NC2=NNC3(C(=O)N2)c2ccccc2-c2ccccc23)C1=S	> 100 µM	> 100	> 100 µM	> 100 µM	82.5	> 100 µM		> 100 µM	74.5	> 100	> 100	66.2 µM							
Cn1c(=O)c2c(nc(N/N=C3/SCC(=O)N3Cc3ccccc3)n2C)n(C)c1=O	> 100 µM	> 100	> 100 µM	> 100 µM	> 100	> 100 µM	66.3	> 100 µM	> 100		> 100								
CC(=O)N[C@@H](Cc1ccc(O)cn1)C(=O)NC1CCCCC1	> 100 µM	> 100	> 100 µM	> 100 µM	> 100	> 100 µM	> 100	> 100 µM	> 100		> 100		> 100						
COc1ccc(/C=N/NC(=S)Nc2cc(C)ccc2OC)cc1	70.9 µM	> 100	> 100 µM	13 µM		73.8 µM	27.6	> 100 µM	43.8	> 100	> 100	66.7 µM	29.2						
CC(=O)[C@]1(O)Cc2c(O)c3c(c(O)c2[C@@H](OC2CC(N)C(O)C(C)O2)C1)C(=O)c1c(OCc2ccccc2)cccc1C3=O (stereo partly specified)	2.16 µM	2.75	33.8 µM	2.68 µM	5.74	6.9 µM	> 100	11.7 µM	58.4	13.8	5.63								
CCCCCCCCCCCCC1N=C(N)N2CCCC2=C1C(=O)OC (stereo unspecified)	3.04 µM	3.11	7.94 µM	2.91 µM	48.8	6.17 µM		14.8 µM	3.64	3.05	3.36		4.22						
CSc1nc[nH]c1C(N)=S	> 100 µM		> 100 µM		> 100	> 100 µM	> 100	> 100 µM	> 100	> 100	> 100	> 100 µM	> 100						
c1ccc(Nc2nnc(CCCCCCCCc3nnc(Nc4ccccc4)o3)o2)cc1	> 100 µM	> 100	> 100 µM	> 100 µM	> 100	> 100 µM		> 100 µM	> 100	> 100		> 100 µM	> 100						
